The values below come from patent US20260028354A1, “TETRAHYDRONAPHTHALENE DERIVATIVES AS ESTROGEN RECEPTOR DEGRADERS” (REGENT OF THE UNIVERSITY OF MICHIGAN, priority 2022, published 2026).

In one test the target is ER in T47D cells (Homo sapiens (Human), UniProt P03372). As to the kind of experiment: In-cell Western (ICW) ER degradation assay in T47D cells. Type of test: cell-based. The settings on record: 16 hrs treatment; for DC50: ER degradation; for Dmax: read-out: T47D Dmax.
The target of the next test is CRBN/DDB1 (Homo sapiens (Human), UniProt Q96SW2). Type of test: binding. The settings on record: His tagged CRBN+DDB1, Cy5-labeled Thalidomide probe, one hour; read-out: CRBN HTRF IC50. Here is the method: The binding potency was determined using HTRF assay technology (Perkin Elmer). Compounds were serially diluted in DMSO and […] volume was transferred to white 384-well plate.
For orientation: TR-FRET usually uses a lanthanide donor and a delayed reading to cut background.

The target in a further test is ER in MCF-7 cells (Homo sapiens (Human), UniProt P03372). As to the kind of experiment: In-cell Western (ICW) ER degradation assay in MCF-7 cells. In kind it is cell-based. The settings on record: 16 hrs treatment; for Dmax: MCF7, MCF-7, maximal ER degradation, read-out: MCF7 Dmax; for DC50: MCF-7, ER degradation, read-out: MCF7 DC50.
Sequence of ER in MCF-7 cells (P03372 whole entry): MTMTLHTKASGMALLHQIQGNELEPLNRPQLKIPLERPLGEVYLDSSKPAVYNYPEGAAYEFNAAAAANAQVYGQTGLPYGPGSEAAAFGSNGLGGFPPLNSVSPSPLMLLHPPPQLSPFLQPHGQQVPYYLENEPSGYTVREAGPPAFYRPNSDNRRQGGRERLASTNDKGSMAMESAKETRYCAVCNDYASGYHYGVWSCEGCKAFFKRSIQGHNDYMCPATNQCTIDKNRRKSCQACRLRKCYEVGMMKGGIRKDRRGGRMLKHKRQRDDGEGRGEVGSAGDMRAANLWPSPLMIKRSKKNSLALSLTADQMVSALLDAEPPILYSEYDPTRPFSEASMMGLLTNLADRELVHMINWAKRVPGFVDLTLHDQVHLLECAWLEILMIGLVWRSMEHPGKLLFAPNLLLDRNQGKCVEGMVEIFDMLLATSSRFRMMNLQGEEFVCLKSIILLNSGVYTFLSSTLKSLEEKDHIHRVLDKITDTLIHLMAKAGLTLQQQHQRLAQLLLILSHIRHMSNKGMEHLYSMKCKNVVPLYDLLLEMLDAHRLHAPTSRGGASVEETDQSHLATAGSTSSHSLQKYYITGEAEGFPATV

Sequence of CRBN/DDB1 (Q96SW2 whole entry, species assumed): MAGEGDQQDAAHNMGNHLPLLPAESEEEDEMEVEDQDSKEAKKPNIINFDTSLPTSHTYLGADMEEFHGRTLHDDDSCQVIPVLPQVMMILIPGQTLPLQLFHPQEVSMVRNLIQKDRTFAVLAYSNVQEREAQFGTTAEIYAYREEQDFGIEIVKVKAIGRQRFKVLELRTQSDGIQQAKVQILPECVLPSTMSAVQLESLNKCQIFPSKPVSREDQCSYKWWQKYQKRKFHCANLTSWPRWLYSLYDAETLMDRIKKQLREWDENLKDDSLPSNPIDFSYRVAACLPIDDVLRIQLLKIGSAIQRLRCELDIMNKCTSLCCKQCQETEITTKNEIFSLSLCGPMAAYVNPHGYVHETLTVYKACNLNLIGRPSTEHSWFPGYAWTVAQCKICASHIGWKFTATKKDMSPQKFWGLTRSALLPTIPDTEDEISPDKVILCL
Sequence of CRBN/DDB1 (Q16531 whole entry partner, species assumed): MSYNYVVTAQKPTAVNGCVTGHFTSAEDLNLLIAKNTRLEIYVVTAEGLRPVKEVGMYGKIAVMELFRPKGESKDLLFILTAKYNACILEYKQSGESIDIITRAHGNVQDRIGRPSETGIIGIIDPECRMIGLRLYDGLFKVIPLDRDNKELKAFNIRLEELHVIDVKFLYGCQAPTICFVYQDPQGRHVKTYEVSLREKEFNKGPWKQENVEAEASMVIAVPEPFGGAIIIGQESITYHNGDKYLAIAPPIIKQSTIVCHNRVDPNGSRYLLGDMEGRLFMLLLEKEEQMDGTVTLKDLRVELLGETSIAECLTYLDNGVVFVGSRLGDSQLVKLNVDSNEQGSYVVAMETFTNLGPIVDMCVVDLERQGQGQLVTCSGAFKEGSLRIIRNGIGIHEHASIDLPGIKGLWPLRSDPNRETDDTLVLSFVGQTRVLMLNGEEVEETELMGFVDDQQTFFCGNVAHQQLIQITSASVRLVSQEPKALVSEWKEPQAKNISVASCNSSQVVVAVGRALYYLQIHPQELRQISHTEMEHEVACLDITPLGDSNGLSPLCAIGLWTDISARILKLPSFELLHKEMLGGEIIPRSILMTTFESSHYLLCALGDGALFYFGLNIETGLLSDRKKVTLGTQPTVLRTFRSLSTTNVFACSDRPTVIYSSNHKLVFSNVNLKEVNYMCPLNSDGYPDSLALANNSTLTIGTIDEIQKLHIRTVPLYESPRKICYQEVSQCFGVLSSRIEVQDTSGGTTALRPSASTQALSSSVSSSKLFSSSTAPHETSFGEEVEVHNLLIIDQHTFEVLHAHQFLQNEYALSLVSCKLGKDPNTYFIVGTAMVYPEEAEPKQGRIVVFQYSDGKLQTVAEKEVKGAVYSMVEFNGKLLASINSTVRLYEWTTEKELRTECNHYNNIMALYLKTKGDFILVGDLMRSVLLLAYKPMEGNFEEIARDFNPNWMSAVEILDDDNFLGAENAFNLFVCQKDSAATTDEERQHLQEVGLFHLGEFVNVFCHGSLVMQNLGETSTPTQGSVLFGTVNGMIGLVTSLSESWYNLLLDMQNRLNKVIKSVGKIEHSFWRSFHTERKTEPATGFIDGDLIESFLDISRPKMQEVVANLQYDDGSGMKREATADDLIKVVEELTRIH
Sequence of ER in T47D cells (P03372 whole entry): as the sequence (P03372 whole entry) above

For orientation: DC50 means the concentration giving 50% degradation. The Dmax is the greatest extent of degradation seen. Usually IC50 stands for the concentration that inhibits the measured activity by half. On to `O=C1CC[C@H](Nc2ccc(C3CCN(C[C@@H]4COC5(CCN(c6ccc([C@H]7c8ccc(O)cc8CC[C@H]7c7ccccc7)cc6)CC5)C4)CC3)c(F)c2)C(=O)N1` (single isomer, unassigned) [Compound A59], for which the DC50 on ER in T47D cells is more than 100 nM; at ER in MCF-7 cells it was less than 1 nM. Also, the Dmax on ER in T47D cells (maximal ER degradation) and on ER in MCF-7 cells was less than 25% each time. Also, the IC50 at CRBN/DDB1 is 50 to 500 nM.
As to `O=C1CC[C@@H](Nc2ccc(C3CCN(C[C@@H]4COC5(CCN(c6ccc([C@H]7c8ccc(O)cc8CC[C@H]7c7ccccc7)cc6)CC5)C4)CC3)c(F)c2)C(=O)N1` (single isomer, unassigned) [Compound A60], the DC50 at ER in T47D cells and at ER in MCF-7 cells was more than 100 nM each time. For the same compound, the Dmax on ER in T47D cells (maximal ER degradation) is less than 25%; at ER in MCF-7 cells it was 25 to 50%. Besides, on CRBN/DDB1, the IC50 was 50 to 500 nM.
Turning to `O=C1CC[C@H](Nc2ccc(C3CCN(C[C@@H]4COC5(CCN(c6ccc([C@@H]7c8ccc(O)cc8CC[C@@H]7c7ccccc7)cc6)CC5)C4)CC3)c(F)c2)C(=O)N1` (single isomer, unassigned) [Compound A61], the DC50 on ER in T47D cells and on ER in MCF-7 cells was more than 100 nM in each case. Moreover, the Dmax on ER in T47D cells (maximal ER degradation) and at ER in MCF-7 cells was less than 25% throughout. The IC50 on CRBN/DDB1 was 50 to 500 nM.
As for `O=C1CC[C@@H](Nc2ccc(C3CCN(C[C@@H]4COC5(CCN(c6ccc([C@@H]7c8ccc(O)cc8CC[C@@H]7c7ccccc7)cc6)CC5)C4)CC3)c(F)c2)C(=O)N1` (single isomer, unassigned) [Compound A62], the DC50 at ER in T47D cells lay in the range of 1 to 10 nM; at ER in MCF-7 cells, 10 to 100 nM. Also, the Dmax at ER in T47D cells (maximal ER degradation) and on ER in MCF-7 cells was 25 to 50% each time. Besides, on CRBN/DDB1, the IC50 lay in the range of 50 to 500 nM.
On to `O=C1CC[C@@H](Nc2ccc(C3CCN(CC4CC5(CCN(c6ccc([C@@H]7c8ccc(O)cc8CC[C@@H]7c7ccccc7)cc6)CC5)C4)CC3)cc2)C(=O)N1` (single isomer, unassigned) [Compound A66], for which the DC50 on ER in T47D cells and at ER in MCF-7 cells was 1 to 10 nM each time. Also, the Dmax at ER in T47D cells (maximal ER degradation) and on ER in MCF-7 cells was 50 to 75% throughout. In addition, on CRBN/DDB1, the IC50 is 50 to 500 nM.
Consider `COc1cc(N2CCC3(CC2)CC(CN2CCN4c5ccc(C(=O)N[C@H]6CCC(=O)NC6=O)nc5OC[C@@H]4C2)C3)ccc1[C@H]1c2ccc(O)cc2CC[C@H]1c1ccccc1` (single isomer, unassigned) [Compound A107], for which the DC50 on ER in T47D cells and at ER in MCF-7 cells was less than 1 nM each time. In addition, the Dmax on ER in T47D cells (maximal ER degradation) and at ER in MCF-7 cells was 50 to 75% in each case. The IC50 on CRBN/DDB1 is more than 5000 nM.
With `COc1cc(N2CCC3(CC2)CC(CN2CCC(c4ccc(N[C@H]5CCC(=O)NC5=O)c(F)c4)CC2)C3)ccc1[C@@H]1c2ccc(O)cc2CC[C@@H]1c1ccccc1` (single isomer, unassigned) [Compound A109], the 50% degradation concentration (DC50) on ER in T47D cells and on ER in MCF-7 cells was less than 1 nM each time. Further, the Dmax on ER in T47D cells (maximal ER degradation) was 50 to 75%; at ER in MCF-7 cells, 25 to 50%. The half-inhibitory concentration (IC50) on CRBN/DDB1 fell in the range of 500 to 5000 nM.
On to `O=C1CC[C@H](N2Cc3c(ccc4c3OC[C@H]3CN(CC5CC6(CCN(c7ccc([C@H]8c9ccc(O)cc9CC[C@H]8c8ccccc8)cn7)CC6)C5)CCN43)C2=O)C(=O)N1` (single isomer, unassigned) [Compound A113], for which the DC50 at ER in T47D cells and at ER in MCF-7 cells was 10 to 100 nM in each case. Further, the Dmax on ER in T47D cells (maximal ER degradation) and at ER in MCF-7 cells was 25 to 50% throughout. For the same compound, the IC50 at CRBN/DDB1 was 50 to 500 nM.
Regarding `O=C1CC[C@H](N2Cc3c(ccc4c3OC[C@H]3CN(CC5CCC6(CC5)CN(c5ncc([C@H]7c8ccc(O)cc8CC[C@H]7c7ccccc7)cn5)C6)CCN43)C2=O)C(=O)N1` (single isomer, unassigned) [Compound A155], the DC50 on ER in T47D cells lay within 10 to 100 nM; at ER in MCF-7 cells, 1 to 10 nM. The values for the greatest degradation seen (Dmax) at ER in T47D cells (maximal ER degradation) and on ER in MCF-7 cells were less than 25% and 25 to 50%, respectively. At CRBN/DDB1, the IC50 is 50 to 500 nM.
`O=C1CCC(NC(=O)c2ccc3c(n2)OC[C@H]2CN(CC4CCN(c5ccc([C@H]6c7ccc(O)cc7CC[C@H]6c6ccccc6)cc5)CC4)CCN32)C(=O)N1` (stereo in doubt) [Compound A4, (4aR)-N-(2,6-dioxopiperidin-3-yl)-3-((1-(4-((1S,2R)-6-hydroxy-2-phenyl-1,2,3,4-tetrahydronaphthalen-1-yl)-phenyl)piperidin-4-yl)meth-yl)-1,2,3,4,4a,5-hexahydro-pyrazino[1,2-d]pyrido[2,3-b] [1,4]oxazine-8-carboxamide]: the DC50 at ER in T47D cells was less than 1 nM; on ER in MCF-7 cells, 1 to 10 nM. In addition, the Dmax on ER in T47D cells (maximal ER degradation) and on ER in MCF-7 cells was 50 to 75% each time. In addition, the IC50 at CRBN/DDB1 lay within 500 to 5000 nM.
Turning to `COc1cc(N2CCC(CN3CCN4c5ccc6c(c5OC[C@@H]4C3)CN([C@@H]3CCC(=O)NC3=O)C6=O)CC2)ccc1[C@@H]1c2ccc(O)cc2CC[C@@H]1c1ccccc1` (stereo in doubt) [Compound A23, (R)-3-((S)-7-((1-(4-((1S,2S)-6-hydroxy-2-phenyl-1,2,3,4-tetrahydronaphthalen-1-yl)-3-methoxyphenyl)piperidin-4-yl)methyl)-1-oxo-1,3,5,5a,6,7,8,9-oCtahydro-2H-pyrazino [1′,2′:4,5][1,4]oxazino[2,3-e]isoindol-2-yl)piperidine-2,6-dione], the DC50 on ER in T47D cells and at ER in MCF-7 cells was 10 to 100 nM in each case. The Dmax on ER in T47D cells (maximal ER degradation) fell in the range of 50 to 75%; on ER in MCF-7 cells, 25 to 50%. Also, the IC50 on CRBN/DDB1 is less than 50 nM.
Regarding `COc1cc(N2CCC3(CC2)CC(CN2CCC(c4ccc(NC5CCC(=O)NC5=O)cc4F)CC2)C3)ccc1[C@@H]1c2ccc(O)cc2CC[C@@H]1c1ccccc1` (stereo in doubt) [Compound A106, (R)-3-((3-fluoro-4-(1-((7-(4-((1S,2S)-6-hydroxy-2-phenyl-1,2,3,4-tetrahydronaphthalen-1-yl)-3-methoxyphenyl)-7-aza-spiro[3.5]nonan-2-yl)methyl)-piperidin-4-yl)phenyl)amino)-piperidine-2,6-dione], the DC50 on ER in T47D cells and at ER in MCF-7 cells was less than 1 nM in each case. The “T47D Dmax” value on ER in T47D cells (maximal ER degradation) is “B (“B”: >50 and <75%)”. Also, on CRBN/DDB1, the IC50 fell in the range of 50 to 500 nM. In addition, on ER in MCF-7 cells (MCF-7, maximal ER degradation), the “MCF7 Dmax” value was “B (“B”: >50 and <75%)”.
In the case of `COc1cc(N2CCC3(CC2)CC(CN2CCN4c5ccc(C(=O)N[C@H]6CCC(=O)NC6=O)nc5OCC4C2)C3)ccc1[C@@H]1c2ccc(O)cc2CC[C@@H]1c1ccccc1` (stereo in doubt) [Compound A108, (S)-N-((S)-2,6-dioxopiperidin-3-yl)-3-((7-(4-((1S,2S)-6-hydroxy-2-phenyl-1,2,3,4-tetra-hydronaphthalen-1-yl)-3-meth-oxyphenyl)-7-azaspiro[3.5]nonan-2-yl)methyl)-1,2,3,4,4a, 5-hexahydropyrazino[1,2-d] pyrido[2,3-b][1,4]oxazine-8-carboxamide], the DC50 on ER in T47D cells and at ER in MCF-7 cells was less than 1 nM each time. Also, the Dmax at ER in T47D cells (maximal ER degradation) and at ER in MCF-7 cells was 50 to 75% throughout. Also, on CRBN/DDB1, the IC50 is 500 to 5000 nM.
For the compound `COc1cc(C(=O)NC2CCC(=O)NC2=O)ncc1N1CCN(CC2CCN(c3ccc([C@@H]4c5ccc(O)cc5CC[C@@H]4c4ccccc4)cc3)CC2)CC1` (stereo partly drawn) [Compound A5, N-(2,6-dioxopiperidin-3-yl)-5-(4-((1-(4-((1R,2S)-6-hydroxy-2-phenyl-1,2,3,4-tetrahydro-naphthalen-1-yl)phenyl)piper-idin-4-yl)methyl)piperazin-1-yl)-4-methoxypicolinamide], the DC50 on ER in T47D cells and at ER in MCF-7 cells was less than 1 nM in each case. Further, the results for the Dmax on ER in T47D cells (maximal ER degradation) and at ER in MCF-7 cells were 25 to 50% and 50 to 75%, respectively. Also, the IC50 on CRBN/DDB1 was more than 5000 nM.
